Patent EP4667464A1 (Cyrus Therapeutics Inc., priority 2023, dated 2024)
Read-outs that look alike come from different tables or passages of the source.

Key:
KRAS G12C::SOS1 = biological target: T1, KRAS G12C::SOS1 (Homo sapiens, UniProt Q07889); assay: KRAS G12C::SOS1 protein-protein interaction (PPI) inhibition assay (HTRF); assay type: binding
T1 construct: purchased CISBIO 64KRASG12PEH
T1 sequence (Q07889 1-1333): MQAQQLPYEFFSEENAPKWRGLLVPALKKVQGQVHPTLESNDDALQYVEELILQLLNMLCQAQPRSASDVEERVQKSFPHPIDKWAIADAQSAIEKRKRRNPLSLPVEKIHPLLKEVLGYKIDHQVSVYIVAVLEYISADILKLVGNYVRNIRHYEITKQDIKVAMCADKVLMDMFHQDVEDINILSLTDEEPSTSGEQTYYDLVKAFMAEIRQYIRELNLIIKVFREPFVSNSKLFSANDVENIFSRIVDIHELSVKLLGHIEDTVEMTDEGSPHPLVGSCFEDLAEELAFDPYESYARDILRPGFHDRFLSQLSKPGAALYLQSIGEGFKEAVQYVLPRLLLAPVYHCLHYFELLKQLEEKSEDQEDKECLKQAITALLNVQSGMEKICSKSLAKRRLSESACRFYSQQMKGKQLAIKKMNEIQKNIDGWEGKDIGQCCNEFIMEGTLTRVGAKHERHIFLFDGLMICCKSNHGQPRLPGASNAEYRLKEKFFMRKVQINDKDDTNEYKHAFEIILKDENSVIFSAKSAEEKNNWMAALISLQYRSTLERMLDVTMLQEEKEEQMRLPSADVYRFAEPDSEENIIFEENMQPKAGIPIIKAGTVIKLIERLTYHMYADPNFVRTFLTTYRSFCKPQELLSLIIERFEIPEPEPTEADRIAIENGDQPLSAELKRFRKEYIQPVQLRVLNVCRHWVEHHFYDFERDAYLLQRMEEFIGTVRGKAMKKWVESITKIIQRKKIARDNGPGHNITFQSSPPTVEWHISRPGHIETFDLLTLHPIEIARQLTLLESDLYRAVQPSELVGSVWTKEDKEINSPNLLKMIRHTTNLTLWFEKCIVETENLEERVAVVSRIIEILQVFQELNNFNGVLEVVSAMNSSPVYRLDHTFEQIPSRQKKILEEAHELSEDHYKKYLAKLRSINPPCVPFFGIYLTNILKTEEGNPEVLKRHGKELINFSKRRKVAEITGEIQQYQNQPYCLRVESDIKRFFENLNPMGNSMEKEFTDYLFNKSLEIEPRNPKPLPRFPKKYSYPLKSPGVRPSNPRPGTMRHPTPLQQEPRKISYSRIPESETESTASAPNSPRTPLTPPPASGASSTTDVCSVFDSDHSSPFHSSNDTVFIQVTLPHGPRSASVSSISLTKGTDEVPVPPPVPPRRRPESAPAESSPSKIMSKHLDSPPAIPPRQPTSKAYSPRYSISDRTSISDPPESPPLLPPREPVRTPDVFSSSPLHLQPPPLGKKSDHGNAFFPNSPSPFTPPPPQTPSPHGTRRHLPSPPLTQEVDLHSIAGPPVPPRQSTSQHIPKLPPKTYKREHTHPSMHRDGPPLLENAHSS
Summary of the method: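 Compounds, at eight 3-fold dilutions from 3 µM, were mixed with GTP-loaded Tag1-KRAS G12C, Tag2-SOS1 and a terbium-cryptate donor plus XL665 acceptor antibody pair. After 2 h at room temperature, time-resolved FRET reported the KRAS–SOS1 interaction.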

[1] = test system: lung cancer cell line NCI-H358 having the KRAS G12C variant; assay: Cancer cell growth inhibition, 3D spheroids (CellTiter-Glo 3D); assay type: cell-based; conditions: read-out: H358 cell viability
Summary of the method: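 NCI-H358 (KRAS G12C) spheroids lysed with CellTiter-Glo 3D for 30 min with shaking after 10 min at room temperature. Growth in compound-treated wells expressed relative to untreated wells set to 100%.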

SOS1 = biological target: T2, SOS1 (Homo sapiens, UniProt Q07889); assay: SOS-catalyzed nucleotide exchange assay (HTRF, SOS1-mediated GTP loading of KRAS G12D); assay type: biochemical
T2 construct: HIS-SOS1cat (160 nM; Cytoskeleton, US); His (N); purchased Cytoskeleton
T2 sequence (Q07889 564-1049 limits assumed): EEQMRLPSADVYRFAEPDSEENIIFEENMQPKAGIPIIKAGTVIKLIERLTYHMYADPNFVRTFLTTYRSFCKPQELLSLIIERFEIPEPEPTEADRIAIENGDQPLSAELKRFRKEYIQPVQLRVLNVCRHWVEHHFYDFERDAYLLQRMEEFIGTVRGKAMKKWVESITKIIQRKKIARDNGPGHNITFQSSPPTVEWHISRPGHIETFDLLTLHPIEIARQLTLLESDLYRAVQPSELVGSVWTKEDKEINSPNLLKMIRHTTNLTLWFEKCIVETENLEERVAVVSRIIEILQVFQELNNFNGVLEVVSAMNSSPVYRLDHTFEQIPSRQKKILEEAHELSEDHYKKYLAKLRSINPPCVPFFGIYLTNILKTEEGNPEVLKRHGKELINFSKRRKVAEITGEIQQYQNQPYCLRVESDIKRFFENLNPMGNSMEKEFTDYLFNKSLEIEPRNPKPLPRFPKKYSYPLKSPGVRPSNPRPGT

[2] = 8 concentrations from 3 µM, three replicates, read-out: KRAS G12C::SOS1 PPI
[3] = GST-KRAS G12D, HIS-SOS1cat, compound 128 pM to 10 µM, read-out: SOS-catalyzed nucleotide exchange assay
[4] = Homo sapiens, NCI-H358, 120 h, 3D spheroids, 0.002-10 µM, 5 days

“N-[(1R)-1-[3-(1,1-difluoro-2-hydroxy-ethyl)-2-fluoro-phenyl]ethyl]-1-[5-(2-methylpyrazol-3-yl)-3-pyridyl]-6-oxo-pyridazine-3-carboxamide [Example 1-16]” gave an IC50 (KRAS G12C::SOS1; [2]) of 50 to 150 nM, an IC50 ([1]; 3D spheroids, 0.002-10 µM, 5 days) of less than 1000 nM and an IC50 (SOS1; [3]) of 50 to 150 nM.
With C[C@@H](NC(=O)c1cc(CO)c(=O)n(-c2cncc(-c3cnnn3C3CC3)c2)n1)c1cccc(C(F)(F)F)c1F [Example 6-3] the IC50 (KRAS G12C::SOS1) was less than 50 nM, the IC50 ([1]; Homo sapiens, NCI-H358, 120 h) was less than 1000 nM and the IC50 (SOS1) was less than 50 nM.
For C[C@@H](NC(=O)c1ccc(=O)n(-c2cncc(-c3cnnn3C)c2)n1)c1cccc(C(F)(F)CO)c1F [Example 1, N-[(1R)-1-[3-(1,1-difluoro-2-hydroxy-ethyl)-2-fluoro-phenyl]ethyl]-1-[5-(3-methyltriazol-4-yl)-3-pyridyl]-6-oxo-pyridazine-3-carboxamide], the IC50 (KRAS G12C::SOS1) was less than 50 nM, the IC50 ([1]; Homo sapiens, NCI-H358, 120 h) was less than 1000 nM and the IC50 (SOS1) was less than 50 nM.
C[C@@H](NC(=O)c1cc(C#N)c(=O)n(-c2cncc(-c3cnnn3C)c2)n1)c1cccc(C(F)(F)F)c1F [Example 3-2, 5-cyano-N-{(1R)-1-[2-fluoro-3-(trifluoromethyl)phenyl]ethyl}-1-[5-(1-methyl-1H-1,2,3-triazol-5-yl)-3-pyridyl]-6-oxo-1,6-dihydropyridazine-3-carboxamide] gave an IC50 (KRAS G12C::SOS1; [2]) of 50 to 150 nM, an IC50 [1, 4] of less than 1000 nM and an IC50 (SOS1; [3]) of 50 to 150 nM.
In the case of C[C@@H](NC(=O)c1ccc(=O)n(-c2cncc(-c3cnnn3C)c2)n1)c1cccc(C(C)(F)F)c1F [Example 1-11, N-[(1R)-1-[3-(1,1-difluoroethyl)-2-fluoro-phenyl]ethyl]-1-[5-(3-methyltriazol-4-yl)-3-pyridyl]-6-oxo-pyridazine-3-carboxamide], the IC50 (KRAS G12C::SOS1; [2]) is reported as 50 to 150 nM, the IC50 [1, 4] is reported as less than 1000 nM and the IC50 (SOS1; [3]) is reported as 50 to 150 nM.
Work on C[C@@H](NC(=O)c1ccc(=O)n(-c2cncc(-c3cnnn3C3CCC3)c2)n1)c1cccc(C(F)(F)F)c1F [Example 1-54, N-[(1R)-1-[2-fluoro-3-(trifluoromethyl)phenyl]ethyl]-1-[5-(1-cyclobutyl-1H-1,2,3-triazol-5-yl)-3-pyridyl]-6-oxo-pyridazine-3-carboxamide] yielded an IC50 (KRAS G12C::SOS1; [2]) of 50 to 150 nM, an IC50 [1, 4] of less than 1000 nM and an IC50 (SOS1; [3]) of less than 50 nM.
With C[C@@H](NC(=O)c1ccc(=O)n(-c2cncc(-c3cnnn3C)c2)n1)c1cc(N)cc(C(F)(F)F)c1F [Example 2-1, N-[(1R)-1-[5-amino-2-fluoro-3-(trifluoromethyl)phenyl]ethyl]-1-[5-(3-methyltriazol-4-yl)-3-pyridyl]-6-oxo-pyridazine-3-carboxamide] the IC50 (KRAS G12C::SOS1; [2]) was less than 50 nM, the IC50 [1, 4] was less than 1000 nM and the IC50 (SOS1; [3]) was less than 50 nM.
In the case of C[C@@H](NC(=O)c1ccc(=O)n(-c2cnc(F)c(-c3cnnn3C)c2)n1)c1cccc(C(F)(F)F)c1F [Example 6], the IC50 (KRAS G12C::SOS1) is reported as 50 to 150 nM, the IC50 ([1]; Homo sapiens, NCI-H358, 120 h) is reported as less than 1000 nM and the IC50 (SOS1) is reported as 50 to 150 nM.
For C[C@@H](NC(=O)c1ccc(=O)n(-c2cc(-c3cnnn3C)cnc2F)n1)c1cccc(C(F)(F)F)c1F [Example 6-7, N-{(R)-1-[2-fluoro-3-(trifluoromethyl)phenyl]ethyl}-1-[2-fluoro-5-(1-methyl-1H-1,2,3-triazol-5-yl)-3-pyridyl]-6-oxo-1,6-dihydropyridazine-3-carboxamide], the IC50 (KRAS G12C::SOS1; [2]) was less than 50 nM, the IC50 [1, 4] was less than 1000 nM and the IC50 (SOS1; [3]) was less than 50 nM.
With C[C@@H](NC(=O)c1ccc(=O)n(-c2cncc(-c3cnnn3C)c2)n1)c1cc(N)cc(C(F)(F)F)c1 [Example 1-9, N-[(1R)-1-[3-amino-5-(trifluoromethyl)phenyl]ethyl]-1-[5-(3-methyltriazol-4-yl)-3-pyridyl]-6-oxo-pyridazine-3-carboxamide] the IC50 (KRAS G12C::SOS1; [2]) was less than 50 nM, the IC50 [1, 4] was less than 1000 nM and the IC50 (SOS1; [3]) was less than 50 nM.
For Cc1c([C@@H](C)NC(=O)c2cc(C)c(=O)n(-c3cncc(-c4cnnn4C)c3)n2)cc(N)cc1C(F)(F)F [Example 2-6, N-[(1R)-1-[5-amino-2-methyl-3-(trifluoromethyl)phenyl]ethyl]-5-methyl-1-[5-(3-methyltriazol-4-yl)-3-pyridyl]-6-oxo-pyridazine-3-carboxamide], the IC50 (KRAS G12C::SOS1; [2]) was less than 50 nM, the IC50 [1, 4] was less than 1000 nM and the IC50 (SOS1; [3]) was less than 50 nM.
